Laboratory results as given in PubChem BioAssay AID2305 (GlaxoSmithKline (GSK), 2010).
pIC50: −log10 of the molar value. “And” between values parts separate entries of the source, which are not always exact repeats. Equal entries are not always repeated.

Tested on: P. falciparum 3D7 growth, pLDH absorbance
Experiment: blood-stage malaria parasite growth potency – strain 3D7, dose response (AID 2305)

Row | SMILES | pIC50
1 | CC(C)c1ccc(CN2CCCCC(NC(=O)c3cc(-c4ccccc4Cl)cs3)C2)cc1 (centres undefined) | 5.95
2 | Cc1cccc(Cn2ccc3c4c(N)nc(N)nc4ccc32)c1 | 8.00
3 | O=[N+]([O-])c1ccccc1C=NNc1ccnc2cc(Cl)ccc12 | 6.06
4 | Cc1cc(C=C2SC(=Nc3ccccc3)N(C3CCCC3)C2=O)c(C)n1-c1ccc(Cl)cc1 | 6.06
5 | O=S(=O)(NCCN1CCCC1)c1ccc(-c2cccc(CNCc3ccsc3)c2)s1 | 6.05
6 | O=C(Cn1c(CCc2cccc(F)c2F)nc(=O)c2cccnc21)N(Cc1ccc(-c2ccc(C(F)(F)F)cc2)cc1)C1CCN(C2CCOCC2)CC1 | 6.08
7 | COCCOCCOCCn1ccc2c3c(N)nc(N)nc3ccc21 | 6.59
8 | OC(CNC1CCCCC1)c1ccc(Cl)c(Cl)c1 (centres undefined) | 6.15
9 | CCCC(=O)c1cnc2c(I)cccc2c1Nc1ccccc1C | 5.94
10 | CCCCCCCN1CC[C@@H](CCCc2ccnc3ccc(OCCCCN=C(N)NO)cc23)[C@@H](CC)C1 | 6.02
11 | CCN(CC)c1cc(C)c2cc(NC(=O)c3cc(=O)c4ccccc4o3)ccc2n1 | 6.66
12 | O=C(Nc1ccc(Cl)cc1)Nc1ccc2c(c1)N1CCN=C1S2 | 6.23
13 | Cc1cc(Nc2c(C(N)=O)cnc3cc(-c4ccoc4)ccc23)ccc1N1CCN(C)CC1 | 6.10
14 | CCC(C)NC(=O)CN1CN(c2ccccc2)C2(CCN(C(=O)c3ccc(C(C)(C)C)cc3)CC2)C1=O (centres undefined) | 6.89
15 | COc1ccccc1-c1csc(C(=O)NC2CCCCN(Cc3ccc(C(C)(C)C)cc3)C2)c1 (centres undefined) | 5.82
16 | CC(=O)Oc1cc(OCc2ccccc2)c(OC(C)=O)c(OCc2ccccc2)c1 | 6.39
17 | O=C(Nc1cccc(-c2ccc(-c3nc4ccc(C(F)(F)F)cc4[nH]3)cc2)c1)Nc1ccc(F)c(F)c1F | 6.59
18 | COc1ccc2nc3cc(Cl)ccc3c(Nc3ccc(C(=O)O)cc3)c2c1 | 6.52
19 | CCCNC(=O)C1Cc2cc(OC)c(OC)cc2C2(N1)C(=O)N(Cc1cccc(OC)c1)c1ccccc12 (centres undefined) | 6.07
20 | CC(C)C[C@@H](NC(=O)NC1CCC(CCN2[C@@H]3CC[C@H]2CC(OC(=O)C(CO)c2ccccc2)C3)CC1)C(O)(c1ccccc1)c1ccccc1 (some centres undefined) | 5.97
21 | CCCCCN1CCCN(Cc2cccc(NC(=O)c3ccc(Cl)c(Cl)c3)c2)CC1 | 6.03
22 | Cc1ccc(N2C(=O)C3C(C2=O)[C@]2(c4ccccc4)C(=O)[C@@]3(c3ccccc3)C(c3ccccc3)=C2c2ccccc2)c(C)c1 (some centres undefined) | 6.28
23 | CCN(CCCN1CCCCC1)c1nc(C)cc(Nc2ccc(Cl)cc2)n1 | 6.08
24 | COc1cc2nc(NCCCN3CCCCC3)nc(NCc3ccccc3)c2cc1OC | 6.00
25 | COc1ccc(Cl)cc1NC(=O)C(C)N1CCN(S(=O)(=O)c2ccccc2F)CC1 (centres undefined) | 6.17

Row | SMILES | pIC50
26 | CC(Nc1cc(-c2ccccn2)nc(-c2ccccn2)n1)c1ccccc1 (centres undefined) | 6.35
27 | CC[C@H]1CN2CCc3cc(OC)c(OC)cc3[C@@H]2C[C@@H]1C[C@H]1NCCc2c1cc(OC)c(OC)c2Br | 6.19
28 | O=C(/C=C/c1ccc(Cl)c(Cl)c1)NCCCCCN1CCC(c2[nH]nc(-c3ccccc3)c2Br)CC1 | 6.14
29 | COc1ccc(C2CCN(CCCCNC(=O)c3ccc(NC(=O)c4ccc(Cl)cc4)cc3)CC2)c(OC)c1 | 6.24
30 | CC(=O)Nc1ccc(C(=O)Nc2ccc(-c3csc(-c4nc5ccccc5[nH]4)c3)cc2)cn1 | 6.23
31 | CC(C)CCNCC(O)Cn1c2ccc(Cl)cc2c2cc(Cl)ccc21 (centres undefined) | 6.35
32 | CCN(CC)CCN(Cc1ccc(-c2ccc(C(F)(F)F)cc2)cc1)C(=O)Cn1c(CCc2cccc(F)c2F)nc(=O)c2cc(F)ccc21 | 6.08
33 | Cc1cc(NC(=O)NCCN2CCC(NC(=O)c3ccc(F)cc3)CC2)c2ccccc2n1 | 6.48
34 | CN1CCCN(Cc2ccc(-c3ccc(NC(=O)c4ccc(Cl)cc4)cc3)cc2)CC1 | 6.05
35 | Cc1ccc(Nc2nc(C)cc(NC3CCN(C)CC3)n2)cc1 | 6.30
36 | CC(C)CNCc1cccc(-c2ccccc2CN(C(=O)NCCc2ccccc2)C2CCN(Cc3ccccc3)CC2)c1 | 5.93
37 | CN(C)c1ccc(C(c2ccc(N(C)C)cc2)c2cc([N+](=O)[O-])ccc2Cl)cc1 | 6.04
38 | COc1ccc2c(C)cc(NCCCN(C)C)nc2c1 | 5.96
39 | COc1ccc(Nc2nc(NCc3ccco3)c3ccccc3n2)cc1 | 6.13
40 | CC(C)CNC(=S)N1CCCN(c2nc3ccc(Cl)cc3s2)CC1 | 6.02
41 | COc1ccc(CNC2CCN(C)CC2)cc1-c1ccc(S(=O)(=O)NCCc2ccccn2)c(F)c1 | 6.09
42 | O=C(Nc1ccc(F)cc1)N1CCCN(c2ccnc3cc(Cl)ccc23)CC1 | 6.10
43 | Cc1cnc(NCC2CCCCC2)nc1N[C@@H](CO)C(=O)Nc1ccccc1 | 5.96
44 | Cc1ccccc1C(=O)Nc1cccc(-c2nc3ncccn3c2C)c1 | 6.12
45 | CCCCCCN1CCCN(Cc2ccc(C(=O)Nc3ccc(CCC)cc3)cc2)CC1 | 6.18
46 | O=C(/C=C/c1ccc(Cl)c(Cl)c1)NCCCCN1CCCN(C(=O)Nc2cc(Cl)cc(Cl)c2)CC1 | 6.02
47 | Cn1cc(-c2ccccc2C(=O)O)c(=O)c2cc(Cl)ccc21 | 6.04
48 | COc1cc(C2Nc3ccc4ccccc4c3C3=C2C(=O)CC(C)(C)C3)ccc1Oc1ccc([N+](=O)[O-])cc1C#N (centres undefined) | 6.18
49 | COc1ccc2nccc([C@@H](O)CN3CCC(NC/C=C/c4cccnc4)CC3)c2c1 | 6.21
50 | CC(O)C1CCCCN1C(=O)c1cccc(-c2cccc(-c3nc4ccc(C(F)(F)F)cc4[nH]3)c2)c1 (centres undefined) | 6.55

Row | SMILES | pIC50
51 | O=C(Nc1cccc(-c2nn3ccccc3c2-c2ccnc(Nc3cccc(F)c3)n2)c1)c1c(F)ccc(F)c1F | 6.07
52 | O=C1C(C2CCC(c3ccc(Cl)cc3)CC2)=C2OCC3COC2(O3)c2ccccc21 (centres undefined) | 7.40
53 | O=C(Nc1cccc(Cl)c1)c1cnc(N2CCN(c3ccncc3)CC2)c(Cl)c1 | 6.02
54 | Cc1[nH]nc2cc(F)c(-c3cc(OC[C@@H](N)Cc4ccccc4)cnc3-c3ccoc3)cc12 | 5.98
55 | COc1ccc(C(=O)CCc2ccc(O)cc2)cc1 | 6.32
56 | CN(C)CCCNc1ncnc2c1[nH]c1ccc(Cl)cc12 | 6.55
57 | CCN1CCC(NCc2ccc(-c3ccc(Cl)cc3)cc2)CC1 | 5.99
58 | CCN(CC)CCN1C(=O)C(O)(c2ccccc2Cl)c2c1cc(C(N)=O)cc2C(F)(F)F (centres undefined) | 6.15
59 | Cc1c(C)c2c(c(C)c1O)CC[C@@](C)(C(=O)N1CCC(CCN3CCC(c4c[nH]c5ccccc45)CC3)CC1)O2 | 6.17
60 | Cc1cc(N(C)C)nc(Nc2ccc(NC(=O)c3cccc(F)c3)cc2)n1 | 6.00
61 | Cc1c(C(=O)N[C@@H](C)c2ccccc2)c2cc(O)c(Br)cc2n1C1CCCCC1 | 6.08
62 | CN1CCN(c2ccc3nc(-c4ccc(Cc5cc(Cl)ccc5OCc5ccccc5)o4)[nH]c3c2)CC1 | 6.09
63 | O=C(C=Cc1ccc(F)c(Br)c1)NC1CCC(CN2CCC(c3c[nH]c4ccccc34)CC2)CC1 (centres undefined) | 6.10 and 6.08
64 | CCCCSc1c(CNCCCCCCNCc2ccc3ccccc3c2SCCCC)ccc2ccccc12 | 6.00
65 | CN1CCN(CC(=O)Nc2ccc(-c3ccc(-c4nc5ccccc5[nH]4)cc3)cc2)CC1 | 6.15
66 | CC(C(=O)OCCOCn1cnc2c(=O)[nH]c(N)nc21)N(C)C(=O)OC(C)(C)C (centres undefined) | 6.00
67 | COc1ccc(Nc2nccc(-c3c(-c4cccc(NC(=O)c5c(F)cccc5F)c4)nn4ccccc34)n2)cc1Cl | 6.55
68 | COc1ccc(-c2nonc2NC(=O)c2ccc(OC(C)C)cc2)cc1OC | 6.20
69 | Cc1c(CNCCCNc2nc3ccccc3[nH]2)sc(C(F)F)c1Br | 6.54
70 | Fc1ccc2nc(-c3cccc(-c4cccc(CNCCc5ccncc5)c4)c3)[nH]c2c1 | 6.77
71 | O=C(/C=C/c1ccc(Cl)c(Cl)c1)NCCCCCN1CCC(NC(=O)Nc2cc(Cl)cc(Cl)c2)CC1 | 6.14
72 | Cn1cc(Br)c(-c2cccc(Nc3ccnc4cc(-c5nccs5)ccc34)c2)n1 | 6.01
73 | CN(C)CCNc1ncnc2c1[nH]c1ccc(Br)cc12 | 6.13
74 | CC(C)(C)c1ccc(CN2CCCCC(NC(=O)c3cc(-c4ccccc4F)cs3)C2)cc1 (centres undefined) | 6.57
75 | O=C(/C=C/c1cc(C(F)(F)F)ccc1F)NC1CCC(CN2CCC(c3c[nH]c4ccccc34)CC2)CC1 (centres undefined) | 6.09

Row | SMILES | pIC50
76 | Cc1ccc(C(=O)N2CCc3cc4nccc(N5CCN6CCC[C@H]6C5)c4cc32)cc1 | 5.96
77 | CC(Cc1ccc(-c2nc3ccccc3[nH]2)cc1)NCC(O)c1cccc(C(F)(F)F)c1 (centres undefined) | 6.46
78 | Cc1cccc2c3c([nH]c12)C1(CCN(Cc2ccccc2)CC1)NC(C(=O)NCc1ccccc1)C3 (centres undefined) | 5.86
79 | CON(CCCN(C)C)C(=N)N | 5.97
80 | Cn1cc(CN2CCC(OC(c3ccccc3)c3ccc(Cl)cc3)CC2)cn1 (centres undefined) | 6.08
81 | Cn1cncc1C(=O)Nc1cccc(-c2ccc(-c3nc4ccc(F)cc4[nH]3)s2)c1 | 6.06
82 | CCc1c[nH]c2c(N3CCCC3=O)cc(C(=O)N[C@@H](Cc3ccccc3)[C@H](O)CNC3CCCCC3)cc12 | 7.00
83 | COc1cc2nc(C)nc(Nc3ccc(Cc4ccccc4)cc3)c2cc1OC | 6.14
84 | Cn1cnc2c(Nc3ccncc3)nc(-c3ccc4c(c3)OCO4)nc21 | 5.95
85 | Cc1ccc(Nc2nc(C)cc(NC3CCCC3)n2)cc1 | 6.54
86 | Cc1cccc2[nH]c(-c3cccc(-c4cccc(CNCc5cnn(-c6ccccc6)n5)c4)c3)nc12 | 6.18
87 | CCCCNC(=O)C(C)NC(=O)c1ccc(O)c(-c2ccc(Cl)c(Cl)c2)c1 (centres undefined) | 6.09
88 | C/C=C1/CN2CC[C@H]1C[C@H]2[C@H](O)c1ccnc2ccc(OC)cc12 | 6.70
89 | CCc1c(C(=O)NC2CCC(N3CCC(c4ccccc4OC)CC3)CC2)[nH]c2ccc(OC)cc12 (centres undefined) | 5.95
90 | Oc1ccc(CCNCCCCNCCc2ccc(Cl)cc2)cc1O | 6.08
91 | CNCCCNc1ccnc2cc(Cl)ccc12 | 7.22
92 | Cc1ccc(NC(=O)c2c(C)noc2-c2snnc2C)cc1 | 5.86
93 | O=c1[nH]c2ccc3[nH]cccc3c2c1C=Nc1ccc(Cn2ccnc2)cc1 | 6.18
94 | CS(=O)(=O)Nc1ccc2[nH]cc(C3CCN(CC4CCN(C(=O)/C=C/c5ccc(Cl)c(Cl)c5)CC4)CC3)c2c1 | 6.14
95 | Cc1ccc(NC(=O)c2ccc(CN3CCCN(CCC(C)C)CC3)cc2)cc1C | 6.04
96 | Cc1ccc(NC(=O)c2cccc(CN3CCCN(Cc4cccc(O)c4)CC3)c2)cc1F | 6.15
97 | Cc1cc(NCCC(=O)NCc2cccc(F)c2)nc(Nc2ccccc2)n1 | 5.98
98 | COc1ccc2nccc([C@@H](O)CN3CCC(NCc4cnc5snnc5c4)C(F)C3)c2c1 (some centres undefined) | 5.87
99 | CCc1cn(C)c2c(N3CCCC3=O)cc(C(=O)N[C@@H](Cc3ccccc3)[C@H](O)CNC3CCCCC3)cc12 | 6.92
